Data on 23 compounds can be found in patent publication EP0923551B1, “4-AMINOETHOXY INDOLONE DERIVATIVES” (AMERICAN HOME PRODUCTS CORPORATION, priority 1996, dated 1998).

Structures are written as SMILES.

The assay deals with dopamine autoreceptor (Rattus norvegicus, UniProt P61169). Description: Affinity for the dopamine autoreceptor, 3H-quinpirole binding in homogenized rat striatal brain tissue. The note with it: for IC50: 3H-quinpirole, homogenized rat striatal brain tissue, read-out: IC50 (nM) D2 Quin.; for Ratio: ratio of IC50 D2 Spiper to IC50 D2 Quin. (LowAg/HighAg, predicts intrinsic activity).
Chain of dopamine autoreceptor (P61169 whole entry): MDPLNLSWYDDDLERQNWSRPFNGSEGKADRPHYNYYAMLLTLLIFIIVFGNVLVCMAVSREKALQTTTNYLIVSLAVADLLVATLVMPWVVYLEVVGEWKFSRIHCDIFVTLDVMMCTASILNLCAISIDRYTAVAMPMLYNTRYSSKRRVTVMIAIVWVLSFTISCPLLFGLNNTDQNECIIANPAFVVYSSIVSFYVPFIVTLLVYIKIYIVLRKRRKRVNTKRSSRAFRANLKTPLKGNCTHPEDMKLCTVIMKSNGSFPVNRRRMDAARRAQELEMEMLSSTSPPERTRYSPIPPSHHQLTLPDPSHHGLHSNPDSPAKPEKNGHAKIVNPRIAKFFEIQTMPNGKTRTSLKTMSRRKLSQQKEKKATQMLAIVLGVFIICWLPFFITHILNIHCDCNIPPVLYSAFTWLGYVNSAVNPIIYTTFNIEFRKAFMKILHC

With `O=C1Cc2c(cccc2OCCNCc2ccccc2)N1` [Example 1, 4-(2-Benzylaminoethoxy)-1,3-dihydro-indol-2-one], the IC50 turned out to be 0.41 nM and the Ratio is 354.

`CNCCOc1cccc2c1CC(=O)N2` [Example 2, 4-(2-Methylamino-ethoxy)-1,3-dihydro-indol-2-one]: the IC50 was 4.31 nM and the Ratio is reported as 213.

Take `NCCOc1cccc2c1CC(=O)N2` [Example 3, 4-(2-Amino-ethoxy)-1,3-dihydro-indol-2-one]: the IC50 was found to be 13.9 nM and the Ratio was 246.

Consider `O=C1Cc2c(OCCNCc3ccc(F)cc3)ccc(Cl)c2N1` [Example 4], for which the IC50 was 2.54 nM and the Ratio is given as 69.

Regarding `O=C1Cc2c(OCCNCc3ccc(Cl)cc3)ccc(Cl)c2N1` [Example 5], the IC50 stood at 2.81 nM and the Ratio was 19.

As for `Cc1ccc(CNCCOc2ccc(Cl)c3c2CC(=O)N3)cc1` [Example 6], the IC50 stood at 1.1 nM and the Ratio was 52.

`CN(CCOc1ccc(Cl)c2c1CC(=O)N2)Cc1ccccc1` [Example 7, 4-[2-(N-Benzyl-N-methyl-amino)-ethoxy]-7-chloro-1,3-dihydro-indol-2-one]: the IC50 stood at 3.68 nM and the Ratio is recorded as 63.

Turning to `CCCCNCCOc1ccc(Cl)c2c1CC(=O)N2` [Example 8, 4-(2-Butylamino-ethoxy)-7-chloro-1,3-dihydro-indol-2-one], the IC50 is 1.89 nM and the Ratio was 76.

As to `O=C1Cc2c(OCCN3CCc4ccccc4C3)ccc(Cl)c2N1` [Example 9, 7-Chloro-4-[2-(3,4-dihydro-1H-isoquinolin-2-yl)-ethoxy]-1,3-dihydro-indol-2-one], the IC50 came to 1.31 nM and the Ratio is on record as 62.

On to `O=C1Cc2c(OCCN3Cc4ccccc4C3)ccc(Cl)c2N1` [Example 10, 7-Chloro-4-[2-(1,3-dihydro-isoindol-2-yl)-ethoxy]-1,3-dihydro-indol-2-one], for which the IC50 is 0.55 nM.

`O=C1Cc2c(OCCNCc3ccc(-c4ccccc4)cc3)ccc(Cl)c2N1` [Example 11, 4-{2-[(Biphenyl-4-ylmethyl)-amino]-ethoxy}-7-chloro-1,3-dihydro-indol-2-one]: the IC50 was 41.1 nM.

`O=C1Cc2c(cccc2OCCNCCCCc2ccccc2)N1` [Example 13]: the IC50 turned out to be 0.45 nM and the Ratio is recorded as 55.

In the case of `O=C1Cc2c(OCCNCc3ccccc3)ccc(Cl)c2N1` [Example 14, 4-(2-Benzylamino-ethoxy)-7-chloro-1,3-dihydro-indol-2-one], the IC50 was 0.82 nM and the Ratio was 44.

`O=C1Cc2c(OCCNCc3ccccc3)ccc(F)c2N1` [Example 15, 4-(2-Benzylamino-ethoxy)-7-fluoro-1,3-dihydro-indol-2-one]: the IC50 turned out to be 0.91 nM and the Ratio is given as 76.

As for `O=C1Cc2c(OCCNCC3CCCCC3)ccc(F)c2N1` [Example 16, 4-[2-(Cyclohexylmethyl-amino)-ethoxy)-7-fluoro-1,3-dihydro-indol-2-one], the IC50 stood at 1.58 nM and the Ratio was 63.

Consider `O=C1Cc2c(OCCNCCCc3c[nH]c4ccccc34)ccc(F)c2N1` [Example 18, 4-{2-[3-(1H-Indol-yl)-propylamino]-ethoxy}-7-fluoro-1,3-dihydro-indol-2-one], for which the IC50 worked out at 0.3 nM.

Regarding `O=C1Cc2c(OCCN3Cc4ccccc4C3)ccc(F)c2N1` [Example 19, 4-[2-(1,3-Dihydro-isoindol-2-yl)-ethoxy]-7-fluoro-1,3-dihydro-indol-2-one], the IC50 stood at 3.57 nM.

As for `O=C1Cc2c(OCCNCc3ccc(-c4ccccc4)cc3)ccc(F)c2N1` [Example 20, 4-{2-[(Biphenyl-4-ylmethyl)-amino]-ethoxy}-7-fluoro-1,3-dihydro-indol-2-one], the IC50 was found to be 11.1 nM.

On to `O=C1Cc2c(OCCNCc3ccc4ccccc4c3)ccc(F)c2N1` [Example 21, 7-Fluoro-4-{2-[(napthalen-2-ylmethyl)-aminol]-ethoxy}-1,3-dihydro-indol-2-one], for which the IC50 was 1.27 nM.

For `O=C1Cc2c(OCCN3CCc4ccccc4C3)ccc(F)c2N1` [Example 22, 4-[2-(3,4-Dihydro-1H-isoquinolin-2-yl)-ethoxy]-7-fluoro-1,3-dihydro-indol-2-one], the 50% inhibitory concentration (IC50) is 1.84 nM.

Consider `CN(CCOc1cccc2c1CC(=O)N2)Cc1ccccc1` [Example 25, 4-[2-(Benzyl-methyl-amino)-ethoxy]-1,3-dihydro-indol-2-one], for which the IC50 amounted to 1.52 nM and the Ratio is listed as 424.

For the compound `Cc1cccc(CN(CCOc2cccc3c2CC(=O)N3)Cc2cccc(C)c2)c1` [Example 26, 4-{2-[Bis-(3-methyl-benzyl)-amino]-ethoxy}-1,3-dihydro-indol-2-one], the IC50 was 31.2 nM and the Ratio is recorded as 619.

`CN(CCCC(=O)c1ccc(F)cc1)CCOc1cccc2c1CC(=O)N2` [Example 27, 4-(2-{[4-(4-Fluoro-phenyl)-4-oxo-butyl]-methyl-amino}-ethoxy)-1,3-dihydro-indol-2-one]: the IC50 is 6.22 nM and the Ratio is 57.

What is called IC50 is the midpoint of a concentration-inhibition curve.
